Source: the supplement of paper PMC10307832

Columns and labels:
Assay in all cases: relative viability (nuclei count vs DMSO), 5 days (fraction); higher = more cells survive
[1] = compound: OCc1c[nH]c2ccccc12 [Indole-3-carbinol] + N=C(N)NC(=N)NCCc1ccccc1 [Phenformin] (partner 250 µM)
Method in brief: (§1)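 Values are medians from duplicate plates. Each reflects relative viability, defined as the nuclei count of treated wells over that of vehicle wells. Lung cancer cell lines in 1536-well plates were pin-tool dosed one day after seeding with one drug alone or with a fixed anchor-drug dose plus five library-drug doses (not always all listed) in √10 steps, then fixed, stained and imaged at 4× after 5 days.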

[2] = compound: OCc1c[nH]c2ccccc12 [Indole-3-carbinol] + Cc1cc(Nc2cc(N3CCN(C)CC3)nc(Sc3ccc(NC(=O)C4CC4)cc3)n2)n[nH]1 [Tozasertib] (partner 0.1 µM)
Method in brief: as §1

[3] = compound: OCc1c[nH]c2ccccc12 [Indole-3-carbinol] + COc1cccc2cc(-c3nc([C@H]4CC[C@H](C(=O)O)CC4)n4ncnc(N)c34)[nH]c12 [OSI-027] (partner 0.5 µM)
Method in brief: as §1

[4] = compound: OCc1c[nH]c2ccccc12 [Indole-3-carbinol] + CCNC(=O)c1noc(-c2cc(C(C)C)c(O)cc2O)c1-c1ccc(CN2CCOCC2)cc1 [Luminespib] (partner 0.01 µM)
Method in brief: as §1

[5] = compound: OCc1c[nH]c2ccccc12 [Indole-3-carbinol] + Cc1nc(Nc2ncc(C(=O)Nc3c(C)cccc3Cl)s2)cc(N2CCN(CCO)CC2)n1 [Dasatinib] (partner 0.075 µM)
Method in brief: as §1

[6] = compound: OCc1c[nH]c2ccccc12 [Indole-3-carbinol] + COc1cc2c(Oc3ccc(NC(=O)C4(C(=O)Nc5ccc(F)cc5)CC4)cc3F)ccnc2cc1OCCCN1CCOCC1 [Foretinib] (partner 0.25 µM)
Method in brief: as §1

[7] = compound: OCc1c[nH]c2ccccc12 [Indole-3-carbinol]
Method in brief: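 A plate was accepted only when its control CV was below 25% and the cells had doubled at least once. Viability is defined from nuclear counts as treated wells divided by vehicle wells, with the median taken across plates. That median covers lung cancer cell lines grown in 1536-well plates, dosed by pinning at five √10-spaced library-drug concentrations, and counted in MetaXpress from 4× Hoechst images after 5 days.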

[8] = compound: OCc1c[nH]c2ccccc12 [Indole-3-carbinol] + CS(=O)(=O)CCNCc1ccc(-c2ccc3ncnc(Nc4ccc(OCc5cccc(F)c5)c(Cl)c4)c3c2)o1 [Lapatinib] (partner 2 µM)
Method in brief: as §1

[9] = compound: OCc1c[nH]c2ccccc12 [Indole-3-carbinol] + Cc1nc(NC(=O)N2CCC[C@H]2C(N)=O)sc1-c1ccnc(C(C)(C)C(F)(F)F)c1 [Alpelisib] (partner 2 µM)
Method in brief: as §1

[10] = compound: OCc1c[nH]c2ccccc12 [Indole-3-carbinol] + CC1(C)CCC(c2ccc(Cl)cc2)=C(CN2CCN(c3ccc(C(=O)NS(=O)(=O)c4ccc(N[C@H](CCN5CCOCC5)CSc5ccccc5)c(S(=O)(=O)C(F)(F)F)c4)cc3)CC2)C1 [Navitoclax] (partner 0.5 µM)
Method in brief: as §1

[11] = compound: OCc1c[nH]c2ccccc12 [Indole-3-carbinol] + CC(C)C[C@H](NC(=O)[C@H](Cc1ccccc1)NC(=O)c1cnccn1)B(O)O [Bortezomib] (partner 0.002 µM)
Method in brief: as §1

[12] = compound: OCc1c[nH]c2ccccc12 [Indole-3-carbinol] + C[C@]1(O)C[C@@H](c2nc(-c3ccc4ccc(-c5ccccc5)nc4c3)c3c(N)nccn32)C1 [Linsitinib] (partner 1 µM)
Method in brief: as §1

[13] = compound: OCc1c[nH]c2ccccc12 [Indole-3-carbinol] + C[C@@H](Oc1cc(-c2cnn(C3CCNCC3)c2)cnc1N)c1c(Cl)ccc(F)c1Cl [Crizotinib] (partner 1 µM)
Method in brief: as §1

[14] = compound: OCc1c[nH]c2ccccc12 [Indole-3-carbinol] + CS(=O)(=O)N1CCN(Cc2cc3nc(-c4cccc5[nH]ncc45)nc(N4CCOCC4)c3s2)CC1 [Pictilisib] (partner 1 µM)
Method in brief: as §1

[15] = compound: OCc1c[nH]c2ccccc12 [Indole-3-carbinol] + O=C(c1cc(Cc2n[nH]c(=O)c3ccccc23)ccc1F)N1CCN(C(=O)C2CC2)CC1 [Olaparib] (partner 8 µM)
Method in brief: as §1

NCI-H1623 was tested, and the relative viability ([1]; first compound 0.253 µM) was 0.725, the relative viability ([1]; first compound 0.8 µM) was 0.611 and the relative viability ([1]; first compound 2.53 µM) was 0.571. The relative viability ([1]; first compound 8 µM) was 0.551, the relative viability ([2]; first compound 0.253 µM) was 0.467 and the relative viability ([2]; first compound 0.8 µM) was 0.486. For the same cell line, the relative viability ([2]; first compound 2.53 µM) was 0.39, the relative viability ([2]; first compound 8 µM) was 0.453 and the relative viability ([3]; first compound 0.253 µM) was 0.412. For the same cell line, the relative viability ([3]; first compound 0.8 µM) was 0.443, the relative viability ([3]; first compound 2.53 µM) was 0.424 and the relative viability ([3]; first compound 8 µM) was 0.436. The relative viability ([4]; first compound 0.253 µM) was 0.425, the relative viability ([4]; first compound 0.8 µM) was 0.543 and the relative viability ([4]; first compound 2.53 µM) was 0.532. For the same cell line, the relative viability ([4]; first compound 8 µM) was 0.529, the relative viability ([5]; first compound 0.253 µM) was 0.531 and the relative viability ([5]; first compound 0.8 µM) was 0.566. The relative viability ([5]; first compound 2.53 µM) was 0.539, the relative viability ([5]; first compound 8 µM) was 0.577 and the relative viability ([6]; first compound 0.253 µM) was 0.881. It also gave a relative viability ([6]; first compound 0.8 µM) of 0.989, a relative viability ([6]; first compound 2.53 µM) of 0.803 and a relative viability ([6]; first compound 8 µM) of 0.858. The relative viability ([7]; 0.253 µM) was 0.924, the relative viability ([7]; 0.8 µM) was 1.02 and the relative viability ([7]; 2.53 µM) was 0.984. The relative viability ([7]; 8 µM) was 0.978.
Calu-6 was tested, and the relative viability ([8]; first compound 0.253 µM) was 1.03, the relative viability ([8]; first compound 0.8 µM) was 1.12 and the relative viability ([8]; first compound 2.53 µM) was 1.05. For the same cell line, the relative viability ([8]; first compound 8 µM) was 0.94, the relative viability ([9]; first compound 0.253 µM) was 1.04 and the relative viability ([9]; first compound 0.8 µM) was 0.966. The relative viability ([9]; first compound 2.53 µM) was 0.819, the relative viability ([9]; first compound 8 µM) was 0.922 and the relative viability ([10]; first compound 0.253 µM) was 0.836. For the same cell line, the relative viability ([10]; first compound 0.8 µM) was 0.947, the relative viability ([10]; first compound 2.53 µM) was 0.889 and the relative viability ([10]; first compound 8 µM) was 0.648. It also gave a relative viability ([11]; first compound 0.253 µM) of 1.08, a relative viability ([11]; first compound 0.8 µM) of 1.1 and a relative viability ([11]; first compound 2.53 µM) of 1.01. It also gave a relative viability ([11]; first compound 8 µM) of 0.966, a relative viability ([12]; first compound 0.253 µM) of 0.974 and a relative viability ([12]; first compound 0.8 µM) of 0.88. For the same cell line, the relative viability ([12]; first compound 2.53 µM) was 1.07, the relative viability ([12]; first compound 8 µM) was 0.92 and the relative viability ([13]; first compound 0.253 µM) was 0.759. The relative viability ([13]; first compound 0.8 µM) was 0.863, the relative viability ([13]; first compound 2.53 µM) was 0.871 and the relative viability ([13]; first compound 8 µM) was 0.742. It also gave a relative viability ([14]; first compound 0.253 µM) of 0.887, a relative viability ([14]; first compound 0.8 µM) of 1.05 and a relative viability ([14]; first compound 2.53 µM) of 0.916. For the same cell line, the relative viability ([14]; first compound 8 µM) was 0.865, the relative viability ([6]; first compound 0.253 µM) was 0.927 and the relative viability ([6]; first compound 0.8 µM) was 0.941. For the same cell line, the relative viability ([6]; first compound 2.53 µM) was 0.842, the relative viability ([6]; first compound 8 µM) was 0.841 and the relative viability ([15]; first compound 0.253 µM) was 0.615. It also gave a relative viability ([15]; first compound 0.8 µM) of 0.629, a relative viability ([15]; first compound 2.53 µM) of 0.59 and a relative viability ([15]; first compound 8 µM) of 0.536. It also gave a relative viability ([7]; 0.253 µM) of 1.07, a relative viability ([7]; 0.8 µM) of 0.994 and a relative viability ([7]; 2.53 µM) of 1. The relative viability ([7]; 8 µM) was 0.914.
With EBC-1 the relative viability ([8]; first compound 0.253 µM) was 0.196, the relative viability ([8]; first compound 0.8 µM) was 0.186 and the relative viability ([8]; first compound 2.53 µM) was 0.228. For the same cell line, the relative viability ([8]; first compound 8 µM) was 0.244, the relative viability ([9]; first compound 0.253 µM) was 0.826 and the relative viability ([9]; first compound 0.8 µM) was 0.856. The relative viability ([9]; first compound 2.53 µM) was 0.83, the relative viability ([9]; first compound 8 µM) was 0.719 and the relative viability ([10]; first compound 0.253 µM) was 0.355. For the same cell line, the relative viability ([10]; first compound 0.8 µM) was 0.404, the relative viability ([10]; first compound 2.53 µM) was 0.39 and the relative viability ([10]; first compound 8 µM) was 0.415. It also gave a relative viability ([11]; first compound 0.253 µM) of 0.546, a relative viability ([11]; first compound 0.8 µM) of 0.541 and a relative viability ([11]; first compound 2.53 µM) of 0.628. The relative viability ([11]; first compound 8 µM) was 0.477, the relative viability ([12]; first compound 0.253 µM) was 0.974 and the relative viability ([12]; first compound 0.8 µM) was 0.965. It also gave a relative viability ([12]; first compound 2.53 µM) of 1.07, a relative viability ([12]; first compound 8 µM) of 0.71 and a relative viability ([13]; first compound 0.253 µM) of 0.176. For the same cell line, the relative viability ([13]; first compound 0.8 µM) was 0.188, the relative viability ([13]; first compound 2.53 µM) was 0.205 and the relative viability ([13]; first compound 8 µM) was 0.169. For the same cell line, the relative viability ([14]; first compound 0.253 µM) was 0.359, the relative viability ([14]; first compound 0.8 µM) was 0.4 and the relative viability ([14]; first compound 2.53 µM) was 0.347. It also gave a relative viability ([14]; first compound 8 µM) of 0.364, a relative viability ([6]; first compound 0.253 µM) of 0.122 and a relative viability ([6]; first compound 0.8 µM) of 0.0975. For the same cell line, the relative viability ([6]; first compound 2.53 µM) was 0.1, the relative viability ([6]; first compound 8 µM) was 0.102 and the relative viability ([15]; first compound 0.253 µM) was 0.684. The relative viability ([15]; first compound 0.8 µM) was 0.732, the relative viability ([15]; first compound 2.53 µM) was 0.631 and the relative viability ([15]; first compound 8 µM) was 0.566. It also gave a relative viability ([7]; 0.253 µM) of 0.938, a relative viability ([7]; 0.8 µM) of 1.01 and a relative viability ([7]; 2.53 µM) of 1.07. For the same cell line, the relative viability ([7]; 8 µM) was 0.871.
